Experiments:
[1] = test system: HIV-1 in treatment naive patients; assay: Clinical study AI424-034, virological outcomes and resistance; type: in vivo, human; settings: study 034
From the text: (§1) Study Population. Viral samples (baseline and on-treatment, where available) were obtained from patients who experienced virologic failure while enrolled in studies AI424-007/041 [12] (ATV+d4T and ddI), AI424-008/044 [13, 14] (ATV+d4T and 3TC) and AI424-034 [9] (ATV or EFV in combination with ZDV and 3TC). […] In general, virologic failure specimens were selected for further resistance evaluation only if they contained >1,000 copies/mL HIV-1 RNA and there was no indication that the specimen came from a patient at a time of transient non-adherence to study drug(s). […] For non-responders, samples from week 16 (or 24) were tested. Drug adherence was determined from pill counts of returned study medications at each scheduled visit.
(§2) ATV resistance was defined as ≧2-fold decrease in ATV susceptibility from baseline, a Fold Change (FC) of ≧2.5 (relative to the Nl4-3 reference strain), or evidence of an isoleucine (Ile) to leucine (Leu) change at amino acid residue 50 (I50L). Resistance levels for NFV and EFV were also defined as a FC reaching 2.5.

[2] = test system: recombinant HIV-1 viruses (NL4-3, RF, LAI) in MT-2 cells; assay: MT-2 cell susceptibility assay of recombinant viruses; type: cell-based; settings: all three viral strains, I50L or I50L/A71V introduced by site-directed mutagenesis
Experimental: Cells and Viruses. MT-2 cells, HIV-1 RF, HIV1-LAI, and the HIV-1 NL4-3 proviral clones were obtained through the AIDS Research and Reference Reagent Program, National Institutes of Health. MT-2 cells were cultured in RPMI 1640 medium supplemented with 10% fetal bovine serum, 2 mM L-glutamine, and 10 mM Hepes buffer. HIV-1 viruses were generated by transient transfection of the proviral DNA into Human Embryonic Kidney 293 cells using Lipofectamine reagents (Gibco BRL). The viruses were harvested 72 hr post-transfection, amplified in MT-2 cells, and titered in the same cells using a virus yield assay.
Recombinant HIV-1 Variants and Chimeric NL4-3 Proviral Clones. HIV-1 strains with defined substitutions in the protease gene were generated by QuikChange® site-directed mutagenesis as recommended by the manufacturer (Stratagene). Recombinant NL4-3 and LAI proviral clones containing the wild-type and mutant protease genes from RF and clinical isolates were constructed by replacing the SseI/ApaI fragment of pNL4-3 with the appropriate SseI/ApaI protease fragments.
Recombinant viruses (generated separately from those made for PhenoSense assays) were tested in an MT-2 cell susceptibility assay at Bristol Myers Squibb. MT-2 cells were infected with recombinant viruses at a multiplicity of infection (MOI) of 0.005 50% tissue culture infective doses (TCID50)/cell followed by incubation in the presence or absence of serially diluted protease inhibitors for 4 to 7 days. Virus yields were quantified using a RT assay as previously described. The results from at least four independent experiments were used to calculate the EC50.

[3] = test system: clinical isolates containing an I50L substitution (and their baseline isolates); assay: PhenoSense phenotypic susceptibility of clinical isolates from ATV-treated patients who developed I50L; type: cell-based, HIV-1
From the text: as §1
(§3) Drug Susceptibility Assays. Clinical isolates were subjected to phenotypic (PhenoSense™) and genotypic (GeneSeq™) analysis by Virologic, Inc. as described elsewhere.

[4] = test system: HIV-1 in treatment naive patients; assay: Clinical study AI424-007/041, virological outcomes and resistance; type: in vivo, human; settings: study 007/041
From the text: as §1, §2

[5] = test system: HIV-1 in treatment naive patients; assay: Clinical study AI424-008/044, virological outcomes and resistance; type: in vivo, human; settings: study 008/044
From the text: as §1, §2

[6] = test system: clinical isolates containing a D30N substitution; assay: PhenoSense phenotypic susceptibility of clinical isolates containing D30N; type: cell-based, HIV-1; settings: 75 D30N containing isolates, FIG. 3
Experimental: as §3
Comparative Studies of I50L and D30N Containing Viruses. […] Comparative studies were performed on the 18 phenotyped viruses containing an I50L and 75 clinical isolates containing a D30N substitution without evidence of cross-resistance (FC≧2.5) to other PIs.

Row | Structure (SMILES) | Virologic Failures (%) [1] | Virologic Failures, number [1] | change in susceptibility [2] | Susceptibility, Fold Change in EC50 relative to reference strain ([3]; Subject 076, Week 80) | Susceptibility, Fold Change in EC50 relative to reference strain ([3]; Subject 076, Week 92) | Susceptibility, Fold Change in EC50 relative to reference strain ([3]; Subject 100, Week 1.7) | Susceptibility, Fold Change in EC50 relative to reference strain ([3]; Subject 169, Week 0.1) | Susceptibility, Fold Change in EC50 relative to reference strain ([3]; Subject 169, Week 90) | Susceptibility, Fold Change in EC50 relative to reference strain ([3]; Subject 169, Week 102) | Subceptibility, Fold Change in EC50 relative to reference strain ([3]; Subject 169, Week 114) | Susceptibility, Fold Change in EC50 relative to reference strain ([3]; Subject 362, Week 0.1) | Susceptibility, Fold Change in EC50 relative to reference strain ([3]; Subject 362, Week 108) | percentage of baseline isolates exhibiting a FC≦0.4 ([3]; baseline isolates) | median increase in susceptibility from baseline ([3]; on emergence of I50L, n=4 to 15) | percentage of I50L isolates with susceptibility (FC) 0.4-fold or lower ([3]; relative to the reference strain) | Virologic Failures (%) [4] | Virologic Failures, number [4] | Virologic Failures (%) [5] | Virologic Failures, number [5] | median FC [6]
1 | O=C1Nc2ccc(Cl)cc2[C@@](C#CC2CC2)(C(F)(F)F)O1 [EFV, efavirenz] | 17% | 69 | – | – | – | – | – | – | – | – | – | – | – | – | – | – | – | – | – | –
2 | Cc1c(O)cccc1C(=O)N[C@@H](CSc1ccccc1)[C@H](O)CN1C[C@H]2CCCC[C@H]2C[C@H]1C(=O)NC(C)(C)C [NFV, nelfinavir] | – | – | enhanced susceptibility | 0.4 Fold Change | 0.6 Fold Change | 2.1 Fold Change | 1.0 Fold Change | 0.5 Fold Change | 0.5 Fold Change | 0.7 Fold Change | 2.3 Fold Change | 1.1 Fold Change | 0% | 1.6 fold | 33% | 23% | 18 | 30% | 27 | resistance
